Key:
HeLa cells = details: 0.5-1000 μg/ml, 48 hours
Procedure: Human cervical carcinoma HeLa cells (commercially available from ATCC under the number CCL-2) were cultured in DMEM supplemented with 10% FBS.

LoVo-OXAR cells [1] = details: single agent: compound (II) 2000 μg/ml or oxaliplatin 50 μg/ml, 48 hours
[2] = test system: EMT markers in LoVo-OXAR cells; details: immunofluorescence
Source text: (§1) Vimentin and E-cadherin are molecular markers linked to tumor progression through their roles in EMT, which is a pathological process contributing to migration and invasion of cancer cells and tumor progression. Vimentin is a key component of intermediate filaments, which helps maintain cellular integrity and resistance to stress. E-cadherin plays a role in maintaining epithelial phenotypes by mediating contact inhibition when cells proliferate and reach confluence. To further investigate the influence of the compound (II) on EMT marker expression, western blotting, immunofluorescence detection, and quantitative real-time reverse transcription polymerase chain reaction (qRT-PCR) were performed in LoVo-parental and LoVo-OXAR cells treated with various doses of the compound (II) for 24 hours.
(§2) The cells were then permeabilized with 0.1% Triton X-100 in 0.1% sodium citrate and the well was blocked with blocking buffer (2% bovine serum albumin), followed by immunofluorescence staining. The cells were incubated with primary antibodies against vimentin and E-cadherin for 24 hours at 4° C. and subsequently incubated with fluorescent secondary antibodies for 1 hour at 25° C. before DAPI staining and observation using fluorescence microscopy.

[3] = test system: EMT markers in LoVo-parental cells; details: immunofluorescence
Source text: as §1, §2

LoVo-OXAR cells [4] = details: single agent: compound (II) 2000 μg/ml or oxaliplatin 50 μg/ml, 72 hours
GBM 8401 cells = details: 0-1800 μg/ml, 24 hours
Procedure: Human brain glioblastoma multiforme GBM 8401 cells (commercially available from BCRC under the number BCRC 60163) were cultured in RPMI 1640 medium supplemented with 10% FBS.

[5] = test system: PANC-1 cells tumor xenograft; experiment: Subcutaneous PANC-1 tumor xenograft in C.B17/SCID mice; details: for Change in body weight / TGI (%): oral; for TGI (%): 14 days, read 14 days after the treatment period
HA22T-parental cells = details: 24 hours
LoVo-OXAR cells [6] = details: 2000 μg/ml, 24 hours, versus control
Procedure: (§3) To evaluate whether the compound (II) induces apoptosis of cancer cells, terminal deoxynucleotidyl transferase dUTP nick-end labeling (TUNEL) assay was employed to detect apoptosis. In brief, LoVo-parental cells and LoVo-OXAR cells were treated with 500 μg/ml and 2000 μg/ml of the compound (II), respectively, for 24 hours before they were subject to TUNEL assay (In Situ Cell Death Detection Kit; Roche Applied Science, Indianapolis, IN, USA) and nuclear counterstain with 0.1 mg/ml 4′,6-diamidino-2-phenylindole (DAPI, Sigma-Aldrich, St. Louis, MO, USA). Lovo-parental or LoVo-OXAR cells treated with 0 μg/ml of the compound (II) were set as control groups. TUNEL-positive cells were examined by Olympus CKX53 microscope (Olympus, Shinjuku-ku, Tokyo, Japan).

LoVo-parental cells [7] = details: 500 μg/ml, 24 hours, versus control
Procedure: as §3

[8] = test system: ER stress markers in LoVo-parental cells; details: 500 μg/ml, 24 hours
Procedure: (§4) Western blot analysis was conducted using primary antibodies against protein kinase RNA-like endoplasmic reticulum kinase (PERK), phosphorylated PERK (p-PERK), alpha subunit of eukaryotic translation initiation factor 2 (eIF2α), phosphorylated eIF2α (p-eIF2α), activating transcription factor 4 (ATF4), proliferating cell nuclear antigen (PCNA), glyceraldehyde 3-phosphate dehydrogenase (GAPDH), and caspase 3 (San-ta Cruz Biotechnology Inc. Santa Cruz, California, USA). GAPDH was used as an internal control for the normalization of protein expression. […] Phosphorylated eIF2α has been known to inhibit the synthesis of various proteins participating in tumorigenesis.

[9] = test system: ER stress markers in LoVo-OXAR cells; details: 2000 μg/ml, 24 hours
Procedure: as §4

LoVo-parental cells [10] = details: single agent: compound (II) 500 μg/ml or oxaliplatin 50 μg/ml, 48 hours
LoVo-parental cells [11] = details: 24 hours
LoVo-OXAR cells [12] = details: high dose 100 mg/kg/day orally, compared to low dose 10 mg/kg/day
Source text: (§5) Six-week-old male NU/NU mice were purchased from Bio LASCO Taiwan Co., Ltd (Taipei, Taiwan) and randomly assigned into six groups (Groups 1 to 6), each containing three mice. […] All mice were sacrificed on day 30, and the mouse lung, kidney, spleen, and heart were examined for metastatic cancer cells.

LoVo-parental cells [13] = details: high dose 100 mg/kg/day orally, compared to low dose 10 mg/kg/day
Source text: as §5

T24 cells = details: 0-1600 μg/ml, 24 hours
Procedure: Human bladder carcinoma T24 cells (commercially available from ATCC under the number HTB-4) were cultured in RPMI 1640 medium supplemented with 10% FBS.

SCC-25 cells = details: 0-1400 μg/ml, 24 hours
Procedure: Human oral squamous cell carcinoma (OSCC)SCC-25 cells (commercially available from ATCC under the number CRL-1628) were cultured in DMEM/F12 supplemented with 10% FBS.

[14] = Group 5: 150 mg/kg, twice a day

CC(=O)[O-].CC(=O)[O-].CC(=O)[O-].CC(=O)[O-].CC(=O)[O-].CC(=O)[O-].O.O.O.O.O=[N+]([O-])[O-].[Cr+3].[Fe+3].[Fe+3].[OH-].[OH-] [compound (II)]
viability of HeLa cells (HeLa cells): reduced the viability of the metastatic Hela cells in a dose-dependent manner
migration rate of LoVo-OXAR cells (LoVo-OXAR cells [1]): significantly decreased
expression of E-cadherin [2]: significantly increased
vimentin expression [2]: significantly suppressed
expression of E-cadherin [3]: significantly increased
vimentin expression [3]: significantly suppressed
invasion rate of LoVo-OXAR cells (LoVo-OXAR cells [4]): significantly decreased
viability of GBM 8401 cells (GBM 8401 cells): reduced the viability of the glioblastoma cells in a dose-dependent manner
Change in body weight ([5]; Group 3: 100 mg/kg, once a day): 107 ± 5%
TGI (%) ([5]; Group 3: 100 mg/kg, once a day): 51 ± 8%
Change in body weight ([5]; Group 4: 150 mg/kg, once a day): 102 ± 3%
TGI (%) ([5]; Group 4: 150 mg/kg, once a day): 51 ± 6%
Change in body weight [5, 14]: 103 ± 4%
TGI (%) [5, 14]: 88 ± 6%
toxicity to mice at a therapeutically effective dose ([5]; Groups 3-5): not toxic to mice
body weight of the mice ([5]; Groups 3-5, FIG. 20B): remained constant
viability of HA22T-parental cells (HA22T-parental cells; 0-1250 μg/ml): reduced the viability of both liver cancer cells in a dose-dependent manner
IC50 against HA22T-parental cells (HA22T-parental cells; MTT): approximately 1000 μg/ml
apoptotic cell death (TUNEL) in LoVo-OXAR cells (LoVo-OXAR cells [6]): significant increase in apoptotic cell death
apoptotic cell death (TUNEL) in LoVo-parental cells (LoVo-parental cells [7]): significant increase in apoptotic cell death
caspase-3 cleavage [8]: activates caspase-3 cleavage
expression of ER stress markers, including PERK, p-eIF2α, and ATF4 [8]: enhancing the expression of ER stress markers
eIF2α levels in LoVo-OXAR cells ([9]; western blot): decreased
phosphorylation of eIF2α in LoVo-OXAR cells ([9]; western blot): increased
caspase-3 cleavage ([9]; LoVo-OXAR cells): activates caspase-3 cleavage
expression of ER stress markers, including PERK, p-eIF2α, and ATF4 ([9]; LoVo-OXAR cells): enhancing the expression of ER stress markers
migration rate of LoVo-parental cells (LoVo-parental cells [10]): significantly decreased
viability of LoVo-parental cells (LoVo-parental cells [11]; 0-4000 μg/ml): reduced the viability of both colorectal cancer cells in a dose-dependent manner
IC50 against LoVo-parental cells (LoVo-parental cells [11]; MTT): about 500 μg/ml
metastasis to the lung, kidney, spleen, and heart (LoVo-OXAR cells [12]): effectively inhibited the metastasis
metastasis to the lung, kidney, spleen, and heart (LoVo-parental cells [13]): effectively inhibited the metastasis
viability of T24 cells (T24 cells): reduced the viability of the bladder carcinoma cells in a dose-dependent manner
viability of SCC-25 cells (SCC-25 cells): reduced the viability of the OSCC cells in a dose-dependent manner
